From ChEMBL document CHEMBL3045511, “Effects of Two Isoflavonoids, Osajin and Pomiferin, from Maclura pomifera for Growth and Feeding Disruption in Ostrinia nubilalis” (2001)

Experiments:
Assay type in all cases: functional
Ostrinia nubilalis [1] = assay: Antifeedant activity against Ostrinia nubilalis (European corn borer) larvae assessed as excretion rate at 0.20% of diet dry weight after 5 days relative to control
Ostrinia nubilalis [2] = assay: Effect on growth of female Ostrinia nubilalis (European corn borer) larvae assessed as pupal weight at 0.10% of diet dry weight after 6 days relative to control
Ostrinia nubilalis [3] = assay: Effect on growth of male Ostrinia nubilalis (European corn borer) larvae assessed as pupal weight at 0.001% of diet dry weight after 6 days relative to control
Ostrinia nubilalis [4] = assay: Effect on growth of male Ostrinia nubilalis (European corn borer) larvae assessed as adult emergence at 1% of diet dry weight after 6 days relative to control
Ostrinia nubilalis [5] = assay: Antifeedant activity against Ostrinia nubilalis (European corn borer) larvae assessed as feeding rate at 0.60% of diet dry weight after 5 days relative to control
Ostrinia nubilalis [6] = assay: Antifeedant activity against Ostrinia nubilalis (European corn borer) larvae assessed as amount of food consumed at 0.40% of diet dry weight after 5 days relative to control
Ostrinia nubilalis [7] = assay: Antifeedant activity against Ostrinia nubilalis (European corn borer) larvae assessed as amount excreted at 0.60% of diet dry weight after 5 days relative to control
Ostrinia nubilalis [8] = assay: Effect on growth of female Ostrinia nubilalis (European corn borer) larvae assessed as pupal weight at 1% of diet dry weight after 6 days relative to control
Ostrinia nubilalis [9] = assay: Effect on growth of female Ostrinia nubilalis (European corn borer) larvae assessed as adult emergence at 0.001% of diet dry weight after 6 days relative to control
Ostrinia nubilalis [10] = assay: Antifeedant activity against Ostrinia nubilalis (European corn borer) larvae assessed as growth rate at 0.20% of diet dry weight after 5 days relative to control
Ostrinia nubilalis [11] = assay: Effect on growth of male Ostrinia nubilalis (European corn borer) larvae assessed as pupal duration at 0.10% of diet dry weight after 6 days relative to control
Ostrinia nubilalis [12] = assay: Antifeedant activity against Ostrinia nubilalis (European corn borer) larvae assessed as growth rate at 0.80% of diet dry weight after 5 days relative to control
Ostrinia nubilalis [13] = assay: Effect on growth of female Ostrinia nubilalis (European corn borer) larvae assessed as adult emergence at 0.01% of diet dry weight after 6 days relative to control
Ostrinia nubilalis [14] = assay: Antifeedant activity against Ostrinia nubilalis (European corn borer) larvae assessed as feeding rate at 0.20% of diet dry weight after 5 days relative to control
Ostrinia nubilalis [15] = assay: Antifeedant activity against Ostrinia nubilalis (European corn borer) larvae assessed as growth rate at 0.10% of diet dry weight after 5 days relative to control
Ostrinia nubilalis [16] = assay: Antifeedant activity against Ostrinia nubilalis (European corn borer) larvae assessed as excretion rate at 0.10% of diet dry weight after 5 days relative to control
Ostrinia nubilalis [17] = assay: Effect on growth of female Ostrinia nubilalis (European corn borer) larvae assessed as larval duration at 0.10% of diet dry weight after 6 days relative to control
Ostrinia nubilalis [18] = assay: Antifeedant activity against Ostrinia nubilalis (European corn borer) larvae assessed as feeding rate at 0.80% of diet dry weight after 5 days relative to control
Ostrinia nubilalis [19] = assay: Effect on growth of male Ostrinia nubilalis (European corn borer) larvae assessed as larval duration at 0.001% of diet dry weight after 6 days relative to control
Ostrinia nubilalis [20] = assay: Antifeedant activity against Ostrinia nubilalis (European corn borer) larvae assessed as amount excreted at 0.10% of diet dry weight after 5 days relative to control
Ostrinia nubilalis [21] = assay: Effect on growth of female Ostrinia nubilalis (European corn borer) larvae assessed as adult emergence at 0.10% of diet dry weight after 6 days relative to control
Ostrinia nubilalis [22] = assay: Insecticidal activity against Ostrinia nubilalis (European corn borer) larvae assessed as mortality at 0.10 to 0.80% of diet dry weight after 5 days relative to control
Ostrinia nubilalis [23] = assay: Antifeedant activity against Ostrinia nubilalis (European corn borer) larvae assessed as amount of food consumed at 0.10% of diet dry weight after 5 days relative to control
Ostrinia nubilalis [24] = assay: Antifeedant activity against Ostrinia nubilalis (European corn borer) larvae assessed as amount of weight gain by the insect at 0.80% of diet dry weight after 5 days relative to control
Ostrinia nubilalis [25] = assay: Effect on growth of male Ostrinia nubilalis (European corn borer) larvae assessed as pupal duration at 0.001% of diet dry weight after 6 days relative to control
Ostrinia nubilalis [26] = assay: Antifeedant activity against Ostrinia nubilalis (European corn borer) larvae assessed as amount excreted at 0.80% of diet dry weight after 5 days relative to control
Ostrinia nubilalis [27] = assay: Effect on growth of male Ostrinia nubilalis (European corn borer) larvae assessed as larval duration at 0.10% of diet dry weight after 6 days relative to control
Ostrinia nubilalis [28] = assay: Effect on growth of female Ostrinia nubilalis (European corn borer) larvae assessed as pupal duration at 0.001% of diet dry weight after 6 days relative to control
Ostrinia nubilalis [29] = assay: Antifeedant activity against Ostrinia nubilalis (European corn borer) larvae assessed as excretion rate at 0.60% of diet dry weight after 5 days relative to control
Ostrinia nubilalis [30] = assay: Antifeedant activity against Ostrinia nubilalis (European corn borer) larvae assessed as amount of weight gain by the insect at 0.20% of diet dry weight after 5 days relative to control
Ostrinia nubilalis [31] = assay: Antifeedant activity against Ostrinia nubilalis (European corn borer) larvae assessed as amount of food consumed at 0.80% of diet dry weight after 5 days relative to control
Ostrinia nubilalis [32] = assay: Effect on growth of female Ostrinia nubilalis (European corn borer) larvae assessed as pupal weight at 0.001% of diet dry weight after 6 days relative to control
Ostrinia nubilalis [33] = assay: Antifeedant activity against Ostrinia nubilalis (European corn borer) larvae assessed as excretion rate at 0.40% of diet dry weight after 5 days relative to control
Ostrinia nubilalis [34] = assay: Antifeedant activity against Ostrinia nubilalis (European corn borer) larvae assessed as amount of weight gain by the insect at 0.10% of diet dry weight after 5 days relative to control
Ostrinia nubilalis [35] = assay: Effect on growth of male Ostrinia nubilalis (European corn borer) larvae assessed as adult emergence at 0.01% of diet dry weight after 6 days relative to control
Ostrinia nubilalis [36] = assay: Effect on growth of female Ostrinia nubilalis (European corn borer) larvae assessed as pupal weight at 0.01% of diet dry weight after 6 days relative to control
Ostrinia nubilalis [37] = assay: Effect on growth of male Ostrinia nubilalis (European corn borer) larvae assessed as pupal duration at 1% of diet dry weight after 6 days relative to control
Ostrinia nubilalis [38] = assay: Antifeedant activity against Ostrinia nubilalis (European corn borer) larvae assessed as amount of food consumed at 0.60% of diet dry weight after 5 days relative to control
Ostrinia nubilalis [39] = assay: Effect on growth of female Ostrinia nubilalis (European corn borer) larvae assessed as pupal duration at 0.10% of diet dry weight after 6 days relative to control
Ostrinia nubilalis [40] = assay: Antifeedant activity against Ostrinia nubilalis (European corn borer) larvae assessed as amount excreted at 0.20% of diet dry weight after 5 days relative to control
Ostrinia nubilalis [41] = assay: Effect on growth of female Ostrinia nubilalis (European corn borer) larvae assessed as larval duration at 1% of diet dry weight after 6 days relative to control
Ostrinia nubilalis [42] = assay: Effect on growth of female Ostrinia nubilalis (European corn borer) larvae assessed as larval duration at 0.01% of diet dry weight after 6 days relative to control
Ostrinia nubilalis [43] = assay: Effect on growth of male Ostrinia nubilalis (European corn borer) larvae assessed as larval duration at 1% of diet dry weight after 6 days relative to control
Ostrinia nubilalis [44] = assay: Antifeedant activity against Ostrinia nubilalis (European corn borer) larvae assessed as growth rate at 0.60% of diet dry weight after 5 days relative to control
Ostrinia nubilalis [45] = assay: Effect on growth of female Ostrinia nubilalis (European corn borer) larvae assessed as larval duration at 0.001% of diet dry weight after 6 days relative to control
Ostrinia nubilalis [46] = assay: Effect on growth of female Ostrinia nubilalis (European corn borer) larvae assessed as adult emergence at 1% of diet dry weight after 6 days relative to control
Ostrinia nubilalis [47] = assay: Effect on growth of female Ostrinia nubilalis (European corn borer) larvae assessed as pupal duration at 0.01% of diet dry weight after 6 days relative to control
Ostrinia nubilalis [48] = assay: Antifeedant activity against Ostrinia nubilalis (European corn borer) larvae assessed as amount of food consumed at 0.20% of diet dry weight after 5 days relative to control
Ostrinia nubilalis [49] = assay: Antifeedant activity against Ostrinia nubilalis (European corn borer) larvae assessed as excretion rate at 0.80% of diet dry weight after 5 days relative to control
Ostrinia nubilalis [50] = assay: Antifeedant activity against Ostrinia nubilalis (European corn borer) larvae assessed as feeding rate at 0.10% of diet dry weight after 5 days relative to control
Ostrinia nubilalis [51] = assay: Effect on growth of male Ostrinia nubilalis (European corn borer) larvae assessed as pupal weight at 1% of diet dry weight after 6 days relative to control
Ostrinia nubilalis [52] = assay: Effect on growth of male Ostrinia nubilalis (European corn borer) larvae assessed as pupal weight at 0.01% of diet dry weight after 6 days relative to control
Ostrinia nubilalis [53] = assay: Effect on growth of female Ostrinia nubilalis (European corn borer) larvae assessed as pupal duration at 1% of diet dry weight after 6 days relative to control
Ostrinia nubilalis [54] = assay: Antifeedant activity against Ostrinia nubilalis (European corn borer) larvae assessed as amount of weight gain by the insect at 0.40% of diet dry weight after 5 days relative to control
Ostrinia nubilalis [55] = assay: Effect on growth of male Ostrinia nubilalis (European corn borer) larvae assessed as pupal duration at 0.01% of diet dry weight after 6 days relative to control
Ostrinia nubilalis [56] = assay: Antifeedant activity against Ostrinia nubilalis (European corn borer) larvae assessed as growth rate at 0.40% of diet dry weight after 5 days relative to control
Ostrinia nubilalis [57] = assay: Effect on growth of male Ostrinia nubilalis (European corn borer) larvae assessed as larval duration at 0.01% of diet dry weight after 6 days relative to control
Ostrinia nubilalis [58] = assay: Effect on growth of male Ostrinia nubilalis (European corn borer) larvae assessed as adult emergence at 0.001% of diet dry weight after 6 days relative to control
Ostrinia nubilalis [59] = assay: Effect on growth of male Ostrinia nubilalis (European corn borer) larvae assessed as adult emergence at 0.10% of diet dry weight after 6 days relative to control
Ostrinia nubilalis [60] = assay: Antifeedant activity against Ostrinia nubilalis (European corn borer) larvae assessed as amount of weight gain by the insect at 0.60% of diet dry weight after 5 days relative to control
Ostrinia nubilalis [61] = assay: Effect on growth of male Ostrinia nubilalis (European corn borer) larvae assessed as pupal weight at 0.10% of diet dry weight after 6 days relative to control
Ostrinia nubilalis [62] = assay: Antifeedant activity against Ostrinia nubilalis (European corn borer) larvae assessed as amount excreted at 0.40% of diet dry weight after 5 days relative to control
Ostrinia nubilalis [63] = assay: Antifeedant activity against Ostrinia nubilalis (European corn borer) larvae assessed as feeding rate at 0.40% of diet dry weight after 5 days relative to control

`CC(C)=CCc1c2c(c3occ(-c4ccc(O)cc4)c(=O)c3c1O)C=CC(C)(C)O2` [OSAJIN] gave an Activity (Ostrinia nubilalis [1]) of 6%, an Activity (Ostrinia nubilalis [2]) of 102 mg and an Activity (Ostrinia nubilalis [3]) of 76 mg. The Activity (Ostrinia nubilalis [4]) was 43%, the Activity (Ostrinia nubilalis [5]) was 36% and the Activity (Ostrinia nubilalis [6]) was 30.5%. For the same compound, the Activity (Ostrinia nubilalis [7]) was 10.8%, the Activity (Ostrinia nubilalis [8]) was 109 mg and the Activity (Ostrinia nubilalis [9]) was 54%. The Activity (Ostrinia nubilalis [10]) was -1%, the Time (Ostrinia nubilalis [11]) was 7.6 days and the Activity (Ostrinia nubilalis [12]) was 3%. It also gave an Activity (Ostrinia nubilalis [13]) of 44%, an Activity (Ostrinia nubilalis [14]) of -8% and an Activity (Ostrinia nubilalis [15]) of -1%. It also gave an Activity (Ostrinia nubilalis [16]) of -1%, a Time (Ostrinia nubilalis [17]) of 11.8 days and an Activity (Ostrinia nubilalis [18]) of 27.5%. For the same compound, the Time (Ostrinia nubilalis [19]) was 11.4 days, the Activity (Ostrinia nubilalis [20]) was -1.4% and the Activity (Ostrinia nubilalis [21]) was 50%. For the same compound, the mortality (Ostrinia nubilalis [22]) was “<=7%”, the Activity (Ostrinia nubilalis [23]) was -8% and the Activity (Ostrinia nubilalis [24]) was 10.5%. It also gave a Time (Ostrinia nubilalis [25]) of 7.2 days, an Activity (Ostrinia nubilalis [26]) of 1.9% and a Time (Ostrinia nubilalis [27]) of 11.4 days. For the same compound, the Time (Ostrinia nubilalis [28]) was 6.5 days, the Activity (Ostrinia nubilalis [29]) was 1.9% and the Activity (Ostrinia nubilalis [30]) was -3%. The Activity (Ostrinia nubilalis [31]) was 27.7%, the Activity (Ostrinia nubilalis [32]) was 103 mg and the Activity (Ostrinia nubilalis [33]) was 6.3%. The Activity (Ostrinia nubilalis [34]) was -2%, the Activity (Ostrinia nubilalis [35]) was 50% and the Activity (Ostrinia nubilalis [36]) was 104 mg. It also gave a Time (Ostrinia nubilalis [37]) of 7.3 days, an Activity (Ostrinia nubilalis [38]) of 36% and a Time (Ostrinia nubilalis [39]) of 7.1 days. For the same compound, the Activity (Ostrinia nubilalis [40]) was 2.6%, the Time (Ostrinia nubilalis [41]) was 12.4 days and the Time (Ostrinia nubilalis [42]) was 12.6 days. It also gave a Time (Ostrinia nubilalis [43]) of 11.3 days, an Activity (Ostrinia nubilalis [44]) of 1.7% and a Time (Ostrinia nubilalis [45]) of 11.7 days. For the same compound, the Activity (Ostrinia nubilalis [46]) was 85%, the Time (Ostrinia nubilalis [47]) was 6.3 days and the Activity (Ostrinia nubilalis [48]) was -12%. The Activity (Ostrinia nubilalis [49]) was 4%, the Activity (Ostrinia nubilalis [50]) was -7% and the Activity (Ostrinia nubilalis [51]) was 71 mg. It also gave an Activity (Ostrinia nubilalis [52]) of 75 mg, a Time (Ostrinia nubilalis [53]) of 6.4 days and an Activity (Ostrinia nubilalis [54]) of 17%. It also gave a Time (Ostrinia nubilalis [55]) of 6.8 days, an Activity (Ostrinia nubilalis [56]) of 4.7% and a Time (Ostrinia nubilalis [57]) of 11.4 days. It also gave an Activity (Ostrinia nubilalis [58]) of 71%, an Activity (Ostrinia nubilalis [59]) of 71% and an Activity (Ostrinia nubilalis [60]) of 7%. The Activity (Ostrinia nubilalis [61]) was 75 mg, the Activity (Ostrinia nubilalis [62]) was 17.6% and the Activity (Ostrinia nubilalis [63]) was 23%.
